In brackets after ≈: the same amount, converted by molar mass. Like-named read-outs stand apart in the source and are kept apart here.
Experiments:
[1] = system: Diplococcus pneumoniae IID 552; experiment: Antibacterial activity in vitro, M.I.C., agar dilution streak method; type: cell-based; conditions: Gram +; for MIC: Streptococcus pneumoniae, IID552, read-out: M.I.C.
[2] = system: Bacillus subtilis PCI 219; experiment: as above; type: cell-based; conditions: Gram +; for MIC: Bacillus subtilis, PCI219, read-out: M.I.C.
[3] = system: Haemophilus influenzae IID 986; experiment: as above; type: cell-based; conditions: Gram -; for MIC: Haemophilus influenzae, IID986, read-out: M.I.C.
Str. pyogenes S-8 = experiment: as above; type: cell-based, Streptococcus pyogenes; conditions: Gram +; for MIC: Streptococcus pyogenes, S8, read-out: M.I.C.
Ps. aeruginosa IFO 12689 = experiment: as above; type: cell-based, Pseudomonas aeruginosa; conditions: Gram -; for MIC: Pseudomonas aeruginosa, IFO12689, read-out: M.I.C.
[4] = system: Pseudomonas aeruginosa IID 1210; experiment: Preventive effect against systemic infection with Pseudomonas aeruginosa in mice; type: in vivo, Pseudomonas aeruginosa; mice (ddY, male); conditions: Pseudomonas aeruginosa, challenge 3.5 × 10^4 cells/mouse; for ED50: twice (immediately and 6 hours after inoculation), read-out: ED50 (95% confidence limit); for ED90: twice, read-out: ED90
Experimental: Systemic infection was produced by inoculating male mice (strain: ddY, 6 weeks old, body weight: 28-33g) in intraperitoneally with Pseudomonas aeruginosa IID 1210 suspended in 0.5 ml of Brain heart infusion broth (Eiken) containing 5% mucin. […] Each of these test materials was administered to the mice twice, immediately after and then 6 hours after the inoculation, and the therapeutic effect of each compounds was judged from the survival rate.
(1) Miller L. C. and M. L. Tainter: Estimation of the ED50 and its error by means of logarithmic-probit graph paper Proc. Soc. Exp. Biol. Med. 57 261-264 (1944)
(2) Litchfield J. T. and F. Wilcoxon: A simplified method of evaluating dose - effect J. Pharmacol. 92 99-113 (1948)

[5] = system: Streptococcus pyogenes IID 692; experiment: Antibacterial activity in vitro, M.I.C., agar dilution streak method; type: cell-based; conditions: Gram +; for MIC: Streptococcus pyogenes, IID692, read-out: M.I.C.
Shigella sonnei IID 969 = experiment: as above; type: cell-based; conditions: Gram -; for MIC: Shigella sonnei, IID969
[6] = system: Corynebacterium pyogenes IID 548; experiment: as above; type: cell-based; conditions: Gram +; for MIC: Corynebacterium pyogenes, IID548
Escherichia coli NIHJ = experiment: as above; type: cell-based; conditions: for MIC: Escherichia coli
Ps. aeruginosa IID 1210 = experiment: as above; type: cell-based, Pseudomonas aeruginosa; conditions: Gram -; for MIC: Pseudomonas aeruginosa, IID1210, read-out: M.I.C.
Str. faecalis IID 682 = experiment: as above; type: cell-based; conditions: Gram +
[7] = system: Proteus vulgaris IFO 3167; experiment: as above; type: cell-based; conditions: Gram -; for MIC: Proteus vulgaris, IFO3167, read-out: M.I.C.
My. smegmatis IFO 3083 = experiment: as above; type: cell-based; conditions: Gram +; for MIC: Mycolicibacterium smegmatis, IFO3083, read-out: M.I.C.
[8] = system: Neisseria perflava IID 856; experiment: as above; type: cell-based; conditions: for MIC: Neisseria perflava, IID856
Ps. aeruginosa IID 1130 = experiment: as above; type: cell-based, Pseudomonas aeruginosa; conditions: Gram -; for MIC: Pseudomonas aeruginosa, IID1130, read-out: M.I.C.
Sta. aureus ATCC 14775 = experiment: as above; type: cell-based, Staphylococcus aureus; conditions: Gram +; for MIC: Staphylococcus aureus, ATCC14775, read-out: M.I.C.
Pr. vulgaris XK Denken = experiment: as above; type: cell-based, Proteus vulgaris; conditions: Gram -; for MIC: Proteus vulgaris, read-out: M.I.C.
[9] = system: Salmonella enteritidis IID 604; experiment: as above; type: cell-based; conditions: Gram -; for MIC: Salmonella enterica, read-out: M.I.C.
[10] = system: Mycobacterium phlei IFO 3142; experiment: as above; type: cell-based; conditions: Gram +; for MIC: Mycolicibacterium phlei, IFO3142, read-out: M.I.C.
[11] = system: Staphylococcus aureus 209P; experiment: as above; type: cell-based; conditions: Gram +; for MIC: Staphylococcus aureus, 209P, read-out: M.I.C.
E. coli ATCC 10536 = experiment: as above; type: cell-based, Escherichia coli; conditions: for MIC: Escherichia coli, ATCC10536
[12] = system: Pseudomonas aeruginosa V-1; experiment: as above; type: cell-based; conditions: Gram -; for MIC: Pseudomonas aeruginosa, V1, read-out: M.I.C.
[13] = system: Klebsiella pneumoniae IFO 3512; experiment: as above; type: cell-based; conditions: for MIC: Klebsiella pneumoniae, IFO3512
[14] = Biliary excretion in rats after a single oral administration of 50 mg/kg; conditions: rat, in vivo, po, 50 mg/kg
[15] = system: Escherichia coli NIHJ JC-2; experiment: Influence of rat bile on antibacterial activity; type: cell-based; conditions: bile of rats
Experimental: Nutrient agar was heated and melted. […] The diameter of the inhibition zone was measured.

[16] = system: gram-positive and gram-negative bacteria including Pseudomonas aeruginosa; experiment: Antibacterial spectrum in vitro (summary in words); type: cell-based
[17] = system: Escherichia coli NIHJ JC-2; experiment: Preventive effect against ascending kidney infection in mice with Escherichia coli; type: in vivo, Escherichia coli; mice (ddY, female); conditions: Escherichia coli, NIHJJC2, 48 h, oral, 3 hours after inoculation, challenge 3.2 × 10^7 cells/mouse
Experimental: Ascending kidney infection was induced in female mice (strain: ddY, 6 weeks old, body weight: 22-26g), by instilling Escherlichia coli NIHJ JC-2 suspended in 0.04 ml of Tryptosoya broth (Nissan) into the urinary tract of mice anesthetized with sodium pentobarbital and by holding for 6 hours the mice in plastic tubes (diameter 25 mm) and clamping the outlet of urinary tract.
Each of these test material was orally administered 3 hours after inoculation. Mice were sacrificed 48 hours after inoculation. Kidneys were removed aseptically and bisected, and the two halves were pressed and streaked on agar plate containing Desoxycholate medium (Nissan). The therapeutic effect of each compound was evaluated from the absence of growth on the agar surface after 20 hours of incubation at 37° C.

Escherichia coli = experiment: Concentration ratio in serum to M.I.C. after oral administration of 50 mg/kg in rats; type: in vivo, Escherichia coli; rats; conditions: rat, in vivo, po, 50 mg/kg

Compound: CC1(C)S[C@@H]2[C@H](NC(=O)C(C(=O)O)c3ccccc3)C(=O)N2[C@H]1C(=O)O (some centres unmarked) [Carbenicillin]
- MIC [1]: 0.39 µg/mL (≈ 1.03 µM)
- MIC [2]: 0.39 µg/mL (≈ 1.03 µM)
- MIC [3]: 0.39 µg/mL (≈ 1.03 µM)
- MIC (Str. pyogenes S-8): 0.1 µg/mL (≈ 0.264 µM)
- MIC (Ps. aeruginosa IFO 12689): 100 µg/mL (≈ 264 µM)
- ED50 ([4]; IID1210, sc, subcutaneous): 800 mg/kg
- ED90 ([4]; IID1210, subcutaneous): 1430 mg/kg
- MIC [5]: 0.1 µg/mL (≈ 0.264 µM)
- MIC (Shigella sonnei IID 969): 1.56 µg/mL (≈ 4.12 µM)
- MIC [6]: 0.2 µg/mL
- MIC (Escherichia coli NIHJ): 1.56 µg/mL (≈ 4.12 µM)
- MIC (Ps. aeruginosa IID 1210): 100 µg/mL (≈ 264 µM)
- MIC (Str. faecalis IID 682; Enterococcus faecalis, IID682): 100 µg/mL
- MIC [7]: 6.25 µg/mL (≈ 16.5 µM)
- MIC (My. smegmatis IFO 3083): 6.25 µg/mL (≈ 16.5 µM)
- MIC [8]: 1.56 µg/mL (≈ 4.12 µM)
- MIC (Ps. aeruginosa IID 1130): 200 µg/mL (≈ 529 µM)
- MIC (Sta. aureus ATCC 14775): 6.25 µg/mL (≈ 16.5 µM)
- MIC (Pr. vulgaris XK Denken): 0.39 µg/mL (≈ 1.03 µM)
- MIC [9]: 12.5 µg/mL (≈ 33 µM)
- MIC [10]: > 200 µg/mL
- MIC [11]: 0.39 µg/mL (≈ 1.03 µM)
- MIC (E. coli ATCC 10536): 1.56 µg/mL (≈ 4.12 µM)
- MIC [12]: 12.5 µg/mL (≈ 33 µM)
- MIC ([13]; Gram -, read-out: M.I.C.): > 200 µg/mL

Compound: CCn1cc(C(=O)O)c(=O)c2cnc(N3CCNCC3)nc21 [Pipemidic acid]
- MIC [1]: > 100 µg/mL
- MIC [2]: 6.25 µg/mL (≈ 20.6 µM)
- MIC [3]: 3.13 µg/mL (≈ 10.3 µM)
- MIC (Str. pyogenes S-8): > 100 µg/mL
- MIC (Ps. aeruginosa IFO 12689): 25 µg/mL (≈ 82.4 µM)
- ED50 ([4]; IID1210, oral): 400 mg/kg
- ED90 ([4]; IID1210, oral): 1120 mg/kg
- concentration at 3 h [14]: 27400 ± 2600 ng/mL
- concentration at 6 h [14]: 22600 ± 1700 ng/mL
- concentration at 24 h [14]: 10200 ± 1200 ng/mL
- concentration at 27 h [14]: < 2000 ng/mL
- dose excreted at 3 h [14]: 0.6 ± 0.07%
- dose excreted at 6 h [14]: 1.01 ± 0.1%
- dose excreted at 24 h [14]: 1.97 ± 0.09%
- dose excreted at 27 h [14]: 1.97 ± 0.09%
- MIC [5]: > 100 µg/mL
- MIC (Shigella sonnei IID 969): 1.56 µg/mL (≈ 5.14 µM)
- antibacterial activity in presence of bile (in words) [15]: not influenced by bile of rats
- MIC [6]: 100 µg/mL
- antibacterial activity (in words) [16]: inactive on many strains of gram-positive bacteria and many Pseudomonas aeruginosa strains
- MIC (Escherichia coli NIHJ): 1.56 µg/mL (≈ 5.14 µM)
- MIC (Ps. aeruginosa IID 1210): 50 µg/mL (≈ 165 µM)
- ED50 ([17]; read-out: ED50 (95% confidence limit)): 74 mg/kg
- ED90 ([17]; read-out: ED90): 235 mg/kg
- MIC [7]: 3.13 µg/mL (≈ 10.3 µM)
- MIC (My. smegmatis IFO 3083): 50 µg/mL (≈ 165 µM)
- MIC [8]: 1.56 µg/mL (≈ 5.14 µM)
- MIC (Ps. aeruginosa IID 1130): 25 µg/mL (≈ 82.4 µM)
- MIC (Sta. aureus ATCC 14775): 100 µg/mL (≈ 330 µM)
- MIC (Pr. vulgaris XK Denken): 6.25 µg/mL (≈ 20.6 µM)
- MIC [9]: 12.5 µg/mL (≈ 41.2 µM)
- serum concentration / M.I.C. ratio (in words) (Escherichia coli): smaller than that of the compound (II)
- time for which serum levels were maintained (Escherichia coli): ≤ 2 h
- MIC [10]: 12.5 µg/mL (≈ 41.2 µM)
- MIC [11]: 25 µg/mL (≈ 82.4 µM)
- MIC (E. coli ATCC 10536): 1.56 µg/mL (≈ 5.14 µM)
- MIC [12]: 12.5 µg/mL (≈ 41.2 µM)
- MIC [13]: 1.56 µg/mL (≈ 5.14 µM)

Compound: Gentamicin
- M.I.C. [1]: 12.5 µg/mL
- M.I.C. [2]: 0.10 µg/mL
- M.I.C. [3]: 1.56 µg/mL
- M.I.C. (Str. pyogenes S-8): 6.25 µg/mL
- M.I.C. (Ps. aeruginosa IFO 12689): 12.5 µg/mL
- M.I.C. [5]: 6.25 µg/mL
- M.I.C. (Shigella sonnei IID 969): 0.78 µg/mL
- M.I.C. [6]: 0.78 µg/mL
- M.I.C. (Escherichia coli NIHJ; Gram -): 0.39 µg/mL
- M.I.C. (Ps. aeruginosa IID 1210): 12.5 µg/mL
- M.I.C. (Str. faecalis IID 682): 50 µg/mL
- M.I.C. [7]: 0.20 µg/mL
- M.I.C. (My. smegmatis IFO 3083): 0.20 µg/mL
- M.I.C. ([8]; Gram -): 0.78 µg/mL
- M.I.C. (Ps. aeruginosa IID 1130): 3.13 µg/mL
- M.I.C. (Sta. aureus ATCC 14775): 0.10 µg/mL
- M.I.C. (Pr. vulgaris XK Denken): 0.10 µg/mL
- M.I.C. [9]: 1.56 µg/mL
- M.I.C. [10]: 6.25 µg/mL
- M.I.C. [11]: 0.10 µg/mL
- M.I.C. (E. coli ATCC 10536; Gram -): 0.39 µg/mL
- M.I.C. [12]: 0.78 µg/mL
- M.I.C. ([13]; Gram -): 0.20 µg/mL

— patent publication US4146719A, “Piperazinyl derivatives of quinoline carboxylic acids” (priority 1977, dated 1979)
